Measurements published in patent US20210299079A1, “MONOMETHYL FUMARATE-CARRIER CONJUGATES AND METHODS OF THEIR USE” (Flagship Pioneering Innovations V, Inc., priority 2018, published 2021).
Where a name gives a salt, the structure may show the parent alone.

Key:
[1] = Stability of conjugates in Simulated Gastric Fluid (SGF); assay type: in vitro ADME; details: SGF pH 1.6 with pepsin, 37° C., 1 μM compound
In short: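 Compound at 1 μM (from 1 mM DMSO stock) in pH 1.6 NaCl medium with FaSSIF powder and 0.1 mg/mL pepsin, mixed at 37° C. Aliquots quenched with equal volume acetonitrile at T0 and regular intervals; LC/MS gives degradation rate.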

[2] = Stability of conjugates in Simulated Intestinal Fluid (SIF); assay type: in vitro ADME; details: SIF pH 6.7 with pancreatin, 37° C., 1 μM compound
In short: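 Compounds at 1 μM in fresh simulated intestinal fluid: FaSSIF powder in pH 6.7 phosphate buffer with pancreatin. Agitated at 37 °C; aliquots taken at T0 and regular intervals, quenched with 1 volume acetonitrile. Degradation rates determined by LC/MS.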

[3] = In vitro Colonic Material Stability Assay; assay type: in vitro ADME; details: colonic material slurry in YCFAC media, anaerobic, 1 or 10 μM
Procedure: Assay 3. In vitro Colonic Material Stability Assay. This assay was used to assess the stability of a conjugate in a large intestine. All experiments were performed in an anaerobic chamber containing 90% nitrogen, 5% hydrogen and 5% carbon dioxide. Colonic material was resuspended as a slurry (15% w/v final concentration) in pre-reduced, anaerobically sterilized dilution blanks (Anaerobe Systems AS-908). The colonic material was then inoculated into 96 well plates containing YCFAC media (Anaerobe Systems AS-680) or other suitable media (6.7 μL slurry into 1 mL total media). Compounds or groups of compounds were added to each individual well to reach a final analyte concentration of 1 or 10 μM, and the material was mixed by pipetting. Sample was removed after set timepoints (0, 120, 240, 480, 1440, 2880 minutes after initiation of the assay), quenched with acetonitrile containing internal standard, and analyzed by LC/MS.

[4] = test system: experimental autoimmune encephalomyelitis (EAE); assay: In Vivo EAE Model of Multiple Sclerosis; parameters: species or system C57BL/6J mice; details: Study 2, oral, amount approximately equimolar to 100 mg/kg DMF, 28 days
Procedure: For experimental autoimmune encephalomyelitis (EAE) study, 8- to 11-week-old C57BL/6J mice were anesthetized and subcutaneously injected with […] and […]. Pertussis toxin (200 ng/mouse) was applied i.p. on days 0. Daily clinical evaluation was performed via a 5-point scale, and the clinical progression was observed over 28 days (FIG. 2A). […] At the end of the study, flow cytometry analysis was performed on the spleen (n=8 per group). […] Statistical analysis was performed with GraphPad Prism (GraphPad Software). Unpaired t test was used to assess significance between the control (Vehicle) and each treatment group. For experimental autoimmune encephalomyelitis (EAE) studies, 8- to 11-week old C57BL/6J mice were anesthetized and subcutaneously injected with […] and […]. Pertussis toxin (200 ng/mouse) was applied intraperitoneally on day 0. Daily clinical evaluation as performed using a 5-point scale and the clinical progression was observed over 28 days (FIGS. 2C and 2D).

[5] = Gastrointestinal (GI) Exposure to Propionate (Study 1); assay type: in vivo, CD-1 mice; details: mouse; for Propionate-d3 AUClast / Propionate-d3 Tmax: single oral dose: Propionate-d3 62 mg/kg, Compound 3-d12 110 mg/kg, Compound 6-d9 91 mg/kg
Procedure: (§1) In order to measure propionate concentrations along the GI track, CD-1 mice were orally administered a single dose of deuterated sodium propionate, Compound 3 comprising deuterated propionate, or Compound 6 comprising deuterated propionate (Propionate-d3, Compound 3-d12, and Compound 6-d9, respectively; suspension, 1% (w/v) methyl cellulose in deionized water). The amounts of compound dosed were normalized to provide approximately equimolar amounts of […] (Propionate-d3 at 62 mg/kg, Compound 3-d12 at 110 mg/kg, and Compound 6-d9 at 91 mg/kg). […] Blood samples were collected in K2EDTA tubes and stored on wet ice no more than 30 min and then further processed to plasma. GI samples were placed into separate labeled, pre-weighted collection tubes and frozen before analysis. Brain samples were homogenized prior to analysis. Samples were subsequently worked up and analyzed by LC-MS/MS for deuterated propionate concentration. Propionate concentrations versus time for different tissues are depicted in FIGS. 4A-4H and 5A-5C.

[6] = Gastrointestinal (GI) Exposure to Monomethylfumarate (MMF) (Study 2); assay type: in vivo, CD-1 mice; details: mouse, samples of Study 1, single oral dose
Procedure: as §1
Samples from Example 6, Study 1 were also analyzed by LC-MS/MS for monomethylfumarate concentrations. MMF concentrations versus time for different tissues are depicted in FIGS. 6A-6F.

**Q.** Which “Assay 1 (SGF) (% Remaining @ 1 hour)” value [1] does the source give for `CCCC(=O)O[C@@H]1[C@@H](OC(=O)CCC)[C@H](C)O[C@@H](OC(=O)/C=C/C(=O)OC)[C@@H]1OC(=O)CCC` [Compound 15, Methyl ((2S,3R,4R,5S,6S)-3,4,5-tris(butyryloxy)-6-methyltetrahydro-2H-pyran-2-yl) fumarate] here?
**A.** B (B: 25-75% of the tested compound remaining)

**Q.** And the “Assay 2 (SIF) (% @ Remaining 4 hours)” value [2]?
**A.** A (A: <25% of the tested compound remaining)

**Q.** And the “Assay 3 (% Remaining at 24 h)” value [3]?
**A.** C (C: >75% of the tested compound remaining)

**Q.** And the “EAE score (5-point scale) compared to control (vehicle only)” value [4]?
**A.** lower EAE scores

**Q.** Which “Assay 1 (SGF) (% Remaining @ 1 hour)” value [1] does the source give for `CCC(=O)OC[C@H]1O[C@@H](OC(=O)/C=C/C(=O)OC)[C@H](OC(=O)CC)[C@@H](OC(=O)CC)[C@@H]1OC(=O)CC` [Compound 3, Methyl ((2S,3R,4S,5R,6R)-3,4,5-tris(propionyloxy)-6-((propionyloxy)methyl)tetrahydro-2H-pyran-2-yl) fumarate] here?
**A.** C (C: >75% of the tested compound remaining)

**Q.** And the “Assay 2 (SIF) (% @ Remaining 4 hours)” value [2]?
**A.** B (B: 25-75% of the tested compound remaining)

**Q.** And the “Assay 3 (% Remaining at 24 h)” value [3]?
**A.** C (C: >75% of the tested compound remaining)

**Q.** What about the “EAE score (5-point scale) compared to control (vehicle only)” value [4] of the same compound?
**A.** lower EAE scores

**Q.** And the “EAE score (5-point scale) compared to mice treated with dimethyl fumarate” value [4]?
**A.** lower or similar EAE scores

**Q.** With `CCC(=O)O[C@H]1[C@H](OC(=O)CC)[C@H](OC(=O)/C=C/C(=O)OC)O[C@@H](C)[C@H]1OC(=O)CC` [Compound 1, Methyl ((2S,3S,4R,5R,6S)-6-methyl-3,4,5-tris(propionyloxy)tetrahydro-2H-pyran-2-yl) fumarate] as the compound, how does the “Assay 1 (SGF) (% Remaining @ 1 hour)” value [1] read?
**A.** C (C: >75% of the tested compound remaining)

**Q.** And the “Assay 3 (% Remaining at 24 h)” value [3]?
**A.** C (C: >75% of the tested compound remaining)

**Q.** And the “EAE score (5-point scale) compared to control (vehicle only)” value [4]?
**A.** lower EAE scores

**Q.** Which “Assay 1 (SGF) (% Remaining @ 1 hour)” value [1] does the source give for `CCC(=O)O[C@@H]1[C@@H](OC(=O)CC)[C@H](OC(=O)/C=C/C(=O)OC)OC[C@H]1OC(=O)CC` [Compound 20, Methyl ((2S,3R,4S,5R)-3,4,5-tris(propionyloxy)tetrahydro-2H-pyran-2-yl) fumarate] here?
**A.** C (C: >75% of the tested compound remaining)

**Q.** What about the “Assay 2 (SIF) (% @ Remaining 4 hours)” value [2] of the same compound?
**A.** A (A: <25% of the tested compound remaining)

**Q.** What about the “Assay 3 (% Remaining at 24 h)” value [3] of the same compound?
**A.** C (C: >75% of the tested compound remaining)

**Q.** What about the “EAE score (5-point scale) compared to control (vehicle only)” value [4] of the same compound?
**A.** lower EAE scores

**Q.** With `[2H]C([2H])([2H])CC(=O)OCC1OC(OC(=O)C=CC(=O)OC)C(OC(=O)CC([2H])([2H])[2H])C(OC(=O)CC([2H])([2H])[2H])C1OC(=O)CC([2H])([2H])[2H]` (stereo not shown) [Compound 3-d12] as the compound, how does the “Propionate-d3 AUClast” value ([5]; Brain) read?
**A.** 1.18 nmol·h/g

**Q.** What about the “Propionate-d3 Tmax” value ([5]; Brain) of the same compound?
**A.** 0.25 h

**Q.** And the “Propionate-d3 AUClast” value ([5]; Cecum)?
**A.** 4010 nmol·h/g

**Q.** And the “Propionate-d3 Tmax” value ([5]; Cecum)?
**A.** 2.00 h

**Q.** And the “Propionate-d3 AUClast” value ([5]; Distal Colon)?
**A.** 2310 nmol·h/g

**Q.** What about the “Propionate-d3 Tmax” value ([5]; Distal Colon) of the same compound?
**A.** 4.00 h

**Q.** What about the “Propionate-d3 AUClast” value ([5]; Distal Intestine) of the same compound?
**A.** 3880 nmol·h/g

**Q.** And the “Propionate-d3 Tmax” value ([5]; Distal Intestine)?
**A.** 1.00 h

**Q.** And the “Propionate-d3 AUClast” value ([5]; Proximal Colon)?
**A.** 2910 nmol·h/g

**Q.** What about the “Propionate-d3 Tmax” value ([5]; Proximal Colon) of the same compound?
**A.** 2.00 h

**Q.** What about the “Propionate-d3 AUClast” value ([5]; Proximal Intestine) of the same compound?
**A.** 3160 nmol·h/g

**Q.** What about the “Propionate-d3 Tmax” value ([5]; Proximal Intestine) of the same compound?
**A.** 0.25 h

**Q.** And the “Propionate-d3 AUClast” value ([5]; Stomach)?
**A.** 4950 nmol·h/g

**Q.** What about the “Propionate-d3 Tmax” value ([5]; Stomach) of the same compound?
**A.** 1.00 h

**Q.** What about the “region where the highest concentrations (Cmax) of propionate-d3 were observed” value ([5]; single oral dose, GI tissues) of the same compound?
**A.** intestines (proximal and distal)

**Q.** What about the “MMF AUClast” value ([6]; Cecum) of the same compound?
**A.** 297 nmol·h/g

**Q.** What about the “MMF Tmax” value ([6]; Cecum) of the same compound?
**A.** 2.00 h

**Q.** And the “MMF AUClast” value ([6]; Distal Colon)?
**A.** 568 nmol·h/g

**Q.** What about the “MMF Tmax” value ([6]; Distal Colon) of the same compound?
**A.** 4.00 h

**Q.** What about the “MMF AUClast” value ([6]; Distal Intestine) of the same compound?
**A.** 156 nmol·h/g

**Q.** And the “MMF Tmax” value ([6]; Distal Intestine)?
**A.** 1.00 h

**Q.** And the “MMF AUClast” value ([6]; Proximal Colon)?
**A.** 465 nmol·h/g

**Q.** And the “MMF Tmax” value ([6]; Proximal Colon)?
**A.** 2.00 h

**Q.** What about the “MMF AUClast” value ([6]; Proximal Intestine) of the same compound?
**A.** 56.4 nmol·h/g

**Q.** What about the “MMF Tmax” value ([6]; Proximal Intestine) of the same compound?
**A.** 0.50 h

**Q.** And the “MMF AUClast” value ([6]; Stomach)?
**A.** 3180 nmol·h/g

**Q.** And the “MMF Tmax” value ([6]; Stomach)?
**A.** 1.00 h

**Q.** With `CCCC(=O)O[C@H]1[C@H](OC(=O)/C=C/C(=O)OC)OC[C@@H](OC(=O)CCC)[C@H]1OC(=O)CCC` [Compound 24, Methyl ((2S,3R,4R,5R)-3,4,5-tris(butyryloxy)tetrahydro-2H-pyran-2-yl) fumarate] as the compound, how does the “Assay 1 (SGF) (% Remaining @ 1 hour)” value [1] read?
**A.** C (C: >75% of the tested compound remaining)

**Q.** And the “Assay 2 (SIF) (% @ Remaining 4 hours)” value [2]?
**A.** A (A: <25% of the tested compound remaining)

**Q.** What about the “EAE score (5-point scale) compared to control (vehicle only)” value [4] of the same compound?
**A.** lower EAE scores
